Measurements as given in patent US12091409B2, “Ether linked triazoles as NRF2 activators” (ASTEX THERAPEUTICS LIMITED, priority 2016, dated 2024).
pEC50: −log10 of the molar value.

System: NQO1 specific enzyme activity in BEAS-2B cells (marker for NRF2 activation)
Assay: BEAS-2B NQO1 MTT Assay
Type: cell-based
Conditions: Homo sapiens, BEAS-2B, 48 h, NQO1 specific activity induction, 48 hours with compound
Method in brief: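 Following 48 h compound treatment at 37° C., 5% CO2, cells were lysed and MTT cocktail added. Product formation was followed kinetically at 570 nm for 30 min. Rate (Delta OD/min) against log concentration was fitted with 3 parameters to give pEC50 for induction of NQO1 specific activity.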

CCn1cc(CO[C@H](c2ccc(C)c(CN3C[C@H](C)Cc4ccncc4S3(=O)=O)c2)C(C)(C)C(=O)O)nn1 [Example 66, (3R)-((1-ethyl-1H-1,2,3-triazol-4-yl)methoxy)-2,2-dimethyl-3-(4-methyl-3-(((R)-4-methyl-1,1-dioxido-4,5-dihydropyrido[4,3-f][1,2]thiazepin-2(3H)-yl)methyl)phenyl)propanoic acid] and CCCn1cc(CO[C@H](c2ccc(C)c(CN3C[C@H](C)Cc4ccncc4S3(=O)=O)c2)C(C)(C)C(=O)O)nn1 [Example 67, (R)-2,2-dimethyl-3-(4-methyl-3-(((R)-4-methyl-1,1-dioxido-4,5-dihydropyrido[4,3-f][1,2]thiazepin-2(3H)-yl)methyl)phenyl)-3-((1-propyl-1H-1,2,3-triazol-4-yl)methoxy)propanoic acid] fall in the same range of pEC50: 6.00 to 7.00 for the first, 6.00 to 7.00 for the second.

CCn1cc(CO[C@H](c2ccc(C)c(CN3C[C@H](C)Cc4ncccc4S3(=O)=O)c2)C(C)(C)C(=O)O)nn1 [Example 68, (3R)-((1-ethyl-1H-1,2,3-triazol-4-yl)methoxy)-2,2-dimethyl-3-(4-methyl-3-(((R)-4-methyl-1,1-dioxido-4,5-dihydropyrido[2,3-f][1,2]thiazepin-2(3H)-yl)methyl)phenyl)propanoic acid] and CCn1cc(CO[C@@H](c2ccc(C)c(CN3C[C@@H](C)Cc4ncccc4S3(=O)=O)c2)C(C)(C)C(=O)O)nn1 [Example 72, (3S)-((1-ethyl-1H-1,2,3-triazol-4-yl)methoxy)-2,2-dimethyl-3-(4-methyl-3-(((S)-4-methyl-1,1-dioxido-4,5-dihydropyrido[2,3-f][1,2]thiazepin-2(3H)-yl)methyl)phenyl)propanoic acid] fall in the same range of pEC50: 7.00 to 8.00 for the first, 7.00 to 8.00 for the second.

Compared with CC[C@@H]1Cc2ccccc2S(=O)(=O)N(Cc2cc([C@H](OCc3cn(CC)nn3)C(C)(C)C(=O)O)ccc2C)C1 [Example 69, (3S)-((1-ethyl-1H-1,2,3-triazol-4-yl)methoxy)-2,2-dimethyl-3-(4-methyl-3-(((R)-4-ethyl-1,1-dioxido-4,5-dihydrobenzo[f][1,2]thiazepin-2(3H)-yl)methyl)phenyl)propanoic acid], CC[C@@H]1Cc2ccccc2S(=O)(=O)N(Cc2cc([C@@H](OCc3cn(CC)nn3)C(C)(C)C(=O)O)ccc2C)C1 [Example 77, (3R)-((1-ethyl-1H-1,2,3-triazol-4-yl)methoxy)-2,2-dimethyl-3-(4-methyl-3-(((R)-4-ethyl-1,1-dioxido-4,5-dihydrobenzo[f][1,2]thiazepin-2(3H)-yl)methyl)phenyl)propanoic acid] is higher in pEC50: 7.00 to 8.00 for the first, 8.00 to 9.00 for the second. The second is the more potent here.

First: CCn1cc(CO[C@H](c2ccc(C)c(CN3C[C@H](C)Cc4ccccc4S3(=O)=O)c2)C(C)(C)C(=O)O)nn1 [Example 70, (3R)-((1-ethyl-1H-1,2,3-triazol-4-yl)methoxy)-2,2-dimethyl-3-(4-methyl-3-(((R)-4-methyl-1,1-dioxido-4,5-dihydrobenzo[f][1,2]thiazepin-2(3H)-yl)methyl)phenyl)propanoic acid]
Second: CCn1cc(CO[C@@H](c2ccc(C)c(CN3C[C@@H](C)Cc4ccccc4S3(=O)=O)c2)C(C)(C)C(=O)O)nn1 [Example 75, (3S)-((1-ethyl-1H-1,2,3-triazol-4-yl)methoxy)-2,2-dimethyl-3-(4-methyl-3-(((S)-4-methyl-1,1-dioxido-4,5-dihydrobenzo[f][1,2]thiazepin-2(3H)-yl)methyl)phenyl)propanoic acid]
The pEC50 of the first is lower: 7.00 to 8.00 for the first, 8.00 to 9.00 for the second.

First: COCCOCCn1cc(CO[C@@H](c2ccc(C)c(CN3C[C@@H](C)Oc4ccccc4S3(=O)=O)c2)C(C)(C)C(=O)O)nn1 [Example 71, (3S)-((1-(2-(2-methoxyethoxy)ethyl)-1H-1,2,3-triazol-4-yl)methoxy)-2,2-dimethyl-3-(4-methyl-3-(((R)-4-methyl-1,1-dioxido-3,4-dihydro-2H-benzo[b][1,4,5]oxathiazepin-2-yl)methyl)phenyl)propanoic acid]
Second: COCCOCCn1cc(CO[C@H](c2ccc(C)c(CN3C[C@@H](C)Oc4ccccc4S3(=O)=O)c2)C(C)(C)C(=O)O)nn1 [Example 80, (R)-3-((1-(2-(2-methoxyethoxy)ethyl)-1H-1,2,3-triazol-4-yl)methoxy)-2,2-dimethyl-3-(4-methyl-3-(((R)-4-methyl-1,1-dioxido-3,4-dihydro-2H-benzo[b][1,4,5]oxathiazepin-2-yl)methyl)phenyl)propanoic acid]
The pEC50 of the first is lower: 7.00 to 8.00 for the first, 8.00 to 9.00 for the second.

First: CCn1cc(COC(c2ccc(C)c(CN(Cc3ccccn3)S(=O)(=O)c3cccc(Br)c3)c2)C(C)(C)C(=O)O)nn1 (centres unmarked) [Example 74, 3-(3-(((3-Bromo-N-(pyridin-2-ylmethyl)phenyl)sulfonamido)methyl)-4-methylphenyl)-3-((1-ethyl-1H-1,2,3-triazol-4-yl)methoxy)-2,2-dimethylpropanoic acid]
Second: CC[C@@H]1CN(Cc2cc([C@@H](OCc3cn(CC)nn3)C(C)(C)C(=O)O)ccc2C)S(=O)(=O)c2ncccc2O1 [Example 82, (R)-3-(3-(((R)-4-ethyl-1,1-dioxido-3,4-dihydro-2H-pyrido[3,2-b][1,4,5]oxathiazepin-2-yl)methyl)-4-methylphenyl)-3-((1-ethyl-1H-1,2,3-triazol-4-yl)methoxy)-2,2-dimethylpropanoic acid]
The pEC50 of the first is lower: 7.00 to 8.00 for the first, 8.00 to 9.00 for the second.

CCCn1cc(CO[C@H](c2ccc(C)c(CN3C[C@H](C)Cc4ccc(F)cc4S3(=O)=O)c2)C(C)(C)C(=O)O)nn1 [Example 76, (3R)-(3-(((R)-8-fluoro-4-methyl-1,1-dioxido-4,5-dihydrobenzo[f][1,2]thiazepin-2(3H)-yl)methyl)-4-methylphenyl)-2,2-dimethyl-3-((1-propyl-1H-1,2,3-triazol-4-yl)methoxy)propanoic acid] and CCCn1cc(CO[C@H](c2ccc(C)c(CN3C[C@H](C)Cc4ccc(C(F)(F)F)cc4S3(=O)=O)c2)C(C)(C)C(=O)O)nn1 [Example 79, (R)-2,2-dimethyl-3-(4-methyl-3-(((R)-4-methyl-1,1-dioxido-8-(trifluoromethyl)-4,5-dihydrobenzo[f][1,2]thiazepin-2(3H)-yl)methyl)phenyl)-3-((1-propyl-1H-1,2,3-triazol-4-yl)methoxy)propanoic acid] fall in the same range of pEC50: 8.00 to 9.00 for the first, 8.00 to 9.00 for the second.

CCCn1cc(CO[C@H](c2ccc(C)c(CN3CC(C)(C)Oc4ccccc4S3(=O)=O)c2)C(C)(C)C(=O)O)nn1 [Example 78, (R)-3-(3-((4,4-dimethyl-1,1-dioxido-3,4-dihydro-2H-benzo[b][1,4,5]oxathiazepin-2-yl)methyl)-4-methylphenyl)-2,2-dimethyl-3-((1-propyl-1H-1,2,3-triazol-4-yl)methoxy)propanoic acid] and CC[C@H]1Cc2ccccc2S(=O)(=O)N(Cc2cc([C@H](OCc3cn(CC)nn3)C(C)(C)C(=O)O)ccc2C)C1 [Example 81, (3S)-((1-ethyl-1H-1,2,3-triazol-4-yl)methoxy)-2,2-dimethyl-3-(4-methyl-3-(((S)-4-ethyl-1,1-dioxido-4,5-dihydrobenzo[f][1,2]thiazepin-2(3H)-yl)methyl)phenyl)propanoic acid] fall in the same range of pEC50: 8.00 to 9.00 for the first, 8.00 to 9.00 for the second.

In the case of CCCn1cc(CO[C@H](c2ccc(C)c(CN3C[C@@H](C)Cc4ccncc4S3(=O)=O)c2)C(C)(C)C(=O)O)nn1 [Example 83, (R)-2,2-dimethyl-3-(4-methyl-3-(((S)-4-methyl-1,1-dioxido-4,5-dihydropyrido[4,3-f][1,2]thiazepin-2(3H)-yl)methyl)phenyl)-3-((1-propyl-1H-1,2,3-triazol-4-yl)methoxy)propanoic acid], the pEC50 was over 9.00.
